Test results: patent publication US20250230193A1, “CYCLIC COMPOUND HAVING SELECTIVE KRAS INHIBITORY EFFECT ON HRAS AND NRAS” (CHUGAI SEIYAKU KABUSHIKI KAISHA, priority 2022, published 2025)

Columns and labels:
[1] = biological target: GDP-bound NRAS wild-type protein (Homo sapiens, UniProt P01111); experiment: Binding to NRAS by surface plasmon resonance (SPR), Single Cycle Kinetics; conditions: KD ratio, GDP-bound NRAS wild-type vs GDP-bound KRAS wild-type, SPR
[2] = biological target: GDP-bound HRAS wild-type protein (Homo sapiens, UniProt P01112); experiment: Binding to HRAS by surface plasmon resonance (SPR), Single Cycle Kinetics; conditions: KD ratio, GDP-bound HRAS wild-type vs GDP-bound KRAS wild-type, SPR
GDP-bound HRAS wild-type protein, sequence (P01112 whole entry): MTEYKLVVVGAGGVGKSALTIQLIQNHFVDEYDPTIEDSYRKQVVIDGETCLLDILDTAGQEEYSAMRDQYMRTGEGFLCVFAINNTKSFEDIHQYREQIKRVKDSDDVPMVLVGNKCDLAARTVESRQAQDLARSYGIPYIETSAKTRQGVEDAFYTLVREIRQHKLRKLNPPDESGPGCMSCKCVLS

GDP-bound NRAS wild-type protein, sequence (P01111 whole entry): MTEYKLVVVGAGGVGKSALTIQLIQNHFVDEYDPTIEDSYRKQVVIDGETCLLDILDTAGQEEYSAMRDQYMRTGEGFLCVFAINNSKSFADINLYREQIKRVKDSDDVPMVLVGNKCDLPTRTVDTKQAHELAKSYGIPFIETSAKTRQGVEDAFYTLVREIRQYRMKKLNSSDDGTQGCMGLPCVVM

Row | SMILES | NRAS/KRAS (ratio of KD value with respect to NRAS to KD value with respect to KRAS) [1] | HRAS/KRAS (ratio of KD value with respect to HRAS to KD value with respect to KRAS) [2]
1 | CC[C@H](C)[C@@H]1NC(=O)[C@H](COC)N(C)C(=O)C[C@@H](C(=O)N2CCOCC2)N(C)C(=O)[C@H](C2CCCC2)N(C)C(=O)C2(CCC2)NC(=O)[C@@H]2CCN2C(=O)[C@H](CCc2cc(F)c(C(F)(F)F)c(F)c2)NC(=O)CN(C)C(=O)[C@H](Cc2ccc(C(F)(F)F)cc2)N2CCCCC[C@@H](C2=O)N(C)C(=O)CN(C)C1=O [PP0840] | B (a compound having 3 or more and less than 10 is denoted as B) | B (a compound having 3 or more and less than 10 is denoted as B)
2 | CCO[C@@H]1C[C@H]2C(=O)NC3(CCCC3)C(=O)N(C)[C@@H](C3CCCC3)C(=O)N(C)[C@H](C(=O)N3CCOCC3)CC(=O)N(C)[C@@H](COC)C(=O)N[C@@H]([C@@H](C)CC)C(=O)N(C)CC(=O)N(C)[C@H]3CCCCCN(C3=O)[C@@H](Cc3ccc(C(F)(F)F)cc3)C(=O)N(C)CC(=O)N[C@@H](CCc3cc(F)c(C(F)(F)F)c(F)c3)C(=O)N2C1 [PP0841] | B (a compound having 3 or more and less than 10 is denoted as B) | B (a compound having 3 or more and less than 10 is denoted as B)
3 | CCO[C@@H]1C[C@H]2C(=O)NC3(CC=CC3)C(=O)N(C)[C@@H](C3CCCC3)C(=O)N(C)[C@H](C(=O)N3CCOCC3)CC(=O)N(C)[C@@H](COC)C(=O)N[C@@H]([C@@H](C)CC)C(=O)N(C)CC(=O)N(C)[C@H]3CCCCCN(C3=O)[C@@H](Cc3ccc(C(F)(F)F)cc3)C(=O)N(C)CC(=O)N[C@@H](CCc3cc(F)c(C(F)(F)F)c(F)c3)C(=O)N2C1 [PP0842] | B (a compound having 3 or more and less than 10 is denoted as B) | B (a compound having 3 or more and less than 10 is denoted as B)
4 | CCO[C@@H]1C[C@H]2C(=O)NC3(CC(F)(F)C3)C(=O)N(C)[C@@H](C3CCCC3)C(=O)N(C)[C@H](C(=O)N3CCOCC3)CC(=O)N(C)[C@@H](COC)C(=O)N[C@@H]([C@@H](C)CC)C(=O)N(C)CC(=O)N(C)[C@H]3CCCCCN(C3=O)[C@@H](Cc3ccc(C(F)(F)F)cc3)C(=O)N(C)CC(=O)N[C@@H](CCc3cc(F)c(C(F)(F)F)c(F)c3)C(=O)N2C1 [PP0843] | B (a compound having 3 or more and less than 10 is denoted as B) | B (a compound having 3 or more and less than 10 is denoted as B)
5 | CCO[C@@H]1C[C@H]2C(=O)NC3(CC(C)(C)C3)C(=O)N(C)[C@@H](C3CCCC3)C(=O)N(C)[C@H](C(=O)N3CCOCC3)CC(=O)N(C)[C@@H](COC)C(=O)N[C@@H]([C@@H](C)CC)C(=O)N(C)CC(=O)N(C)[C@H]3CCCCCN(C3=O)[C@@H](Cc3ccc(C(F)(F)F)cc3)C(=O)N(C)CC(=O)N[C@@H](CCc3cc(F)c(C(F)(F)F)c(F)c3)C(=O)N2C1 [PP0844] | B (a compound having 3 or more and less than 10 is denoted as B) | B (a compound having 3 or more and less than 10 is denoted as B)
6 | CC[C@H](C)[C@@H]1NC(=O)[C@H](COC)N(C)C(=O)C[C@@H](C(=O)N2CCOCC2)N(C)C(=O)[C@H](C2CCCC2)N(C)C(=O)C2(CCCC2)NC(=O)[C@@H]2CCCN2C(=O)[C@H](CCc2cc(F)c(C(F)(F)F)c(F)c2)NC(=O)CN(C)C(=O)[C@H](Cc2ccc(C(F)(F)F)cc2)N2CCCCC[C@@H](C2=O)N(C)C(=O)CN(C)C1=O [PP0845] | B (a compound having 3 or more and less than 10 is denoted as B) | B (a compound having 3 or more and less than 10 is denoted as B)
7 | CC[C@H](C)[C@@H]1NC(=O)[C@H](COC)N(C)C(=O)C[C@@H](C(=O)N2CCOCC2)N(C)C(=O)[C@H](C2CCCC2)N(C)C(=O)C2(CCCC2)NC(=O)[C@@H]2CC(F)(F)CN2C(=O)[C@H](CCc2cc(F)c(C(F)(F)F)c(F)c2)NC(=O)CN(C)C(=O)[C@H](Cc2ccc(C(F)(F)F)cc2)N2CCCCC[C@@H](C2=O)N(C)C(=O)CN(C)C1=O [PP0846] | B (a compound having 3 or more and less than 10 is denoted as B) | B (a compound having 3 or more and less than 10 is denoted as B)
8 | CC[C@H](C)[C@@H]1NC(=O)[C@H](COC)N(C)C(=O)C[C@@H](C(=O)N2CCOCC2)N(C)C(=O)[C@H](C2CCCC2)N(C)C(=O)C2(CCCC2)NC(=O)[C@@H]2C[C@H](O)CN2C(=O)[C@H](CCc2cc(F)c(C(F)(F)F)c(F)c2)NC(=O)CN(C)C(=O)[C@H](Cc2ccc(C(F)(F)F)cc2)N2CCCCC[C@@H](C2=O)N(C)C(=O)CN(C)C1=O [PP0847] | B (a compound having 3 or more and less than 10 is denoted as B) | B (a compound having 3 or more and less than 10 is denoted as B)
9 | CCO[C@@H]1C[C@H]2C(=O)NC3(CCC3)C(=O)N(C)[C@@H](C3CCCC3)C(=O)N(C)[C@H](C(=O)N3CCOCC3)CC(=O)N(C)[C@@H](COC)C(=O)N[C@@H]([C@@H](C)CC)C(=O)N(C)CC(=O)N(C)[C@H]3CCCCCN(C3=O)[C@@H](Cc3ccc(C(F)(F)F)cc3)C(=O)N(C)CC(=O)N[C@@H](CCc3ccc(C(F)(F)F)c(F)c3)C(=O)N2C1 [PP0848] | B (a compound having 3 or more and less than 10 is denoted as B) | B (a compound having 3 or more and less than 10 is denoted as B)
10 | CCO[C@@H]1C[C@H]2C(=O)NC3(CCC3)C(=O)N(C)[C@@H](C3CCCC3)C(=O)N(C)[C@H](C(=O)N3CCOCC3)CC(=O)N(C)[C@@H](COC)C(=O)N[C@@H]([C@@H](C)CC)C(=O)N(C)CC(=O)N(C)[C@H]3CCCCCN(C3=O)[C@@H](Cc3ccc(C(F)(F)F)cc3)C(=O)N(C)CC(=O)N[C@@H](CCc3ccc(C(F)(F)F)c(Cl)c3)C(=O)N2C1 [PP0849] | B (a compound having 3 or more and less than 10 is denoted as B) | B (a compound having 3 or more and less than 10 is denoted as B)
11 | CCO[C@@H]1C[C@H]2C(=O)NC3(CCC3)C(=O)N(C)[C@@H](C3CCCC3)C(=O)N(C)[C@H](C(=O)N3CCOCC3)CC(=O)N(C)[C@@H](COC)C(=O)N[C@@H]([C@@H](C)CC)C(=O)N(C)CC(=O)N(C)[C@H]3CCCCCN(C3=O)[C@@H](Cc3ccc(C(F)(F)F)cc3)C(=O)N(C)CC(=O)N[C@@H](CCc3ccc(C)cc3)C(=O)N2C1 [PP0850] | B (a compound having 3 or more and less than 10 is denoted as B) | B (a compound having 3 or more and less than 10 is denoted as B)
12 | CCOC[C@H]1C(=O)N[C@@H]([C@@H](C)CC)C(=O)N(C)CC(=O)N(C)[C@H]2CCCCCN(C2=O)[C@@H](Cc2ccc(C(F)(F)F)cc2)C(=O)N(C)CC(=O)N[C@@H](CCc2cc(F)c(C(F)(F)F)c(F)c2)C(=O)N2C[C@H](OCC)C[C@H]2C(=O)NC2(CCC2)C(=O)N(C)[C@@H](C2CCCC2)C(=O)N(C)[C@H](C(=O)N2CCOCC2)CC(=O)N1C [PP0851] | B (a compound having 3 or more and less than 10 is denoted as B) | B (a compound having 3 or more and less than 10 is denoted as B)
13 | CCO[C@@H]1C[C@H]2C(=O)NC3(CCC3)C(=O)N(C)[C@@H](C3CCCC3)C(=O)N(C)[C@H](C(=O)N3CCOCC3)CC(=O)N(C)[C@@H](COC3CC3)C(=O)N[C@@H]([C@@H](C)CC)C(=O)N(C)CC(=O)N(C)[C@H]3CCCCCN(C3=O)[C@@H](Cc3ccc(C(F)(F)F)cc3)C(=O)N(C)CC(=O)N[C@@H](CCc3cc(F)c(C(F)(F)F)c(F)c3)C(=O)N2C1 [PP0852] | B (a compound having 3 or more and less than 10 is denoted as B) | B (a compound having 3 or more and less than 10 is denoted as B)
14 | CCO[C@@H]1C[C@H]2C(=O)NC3(CCC3)C(=O)N(C)[C@@H](C3CCCC3)C(=O)N(C)[C@H](C(=O)N3CCOCC3)CC(=O)N(C)[C@@H](COCC(F)(F)F)C(=O)N[C@@H]([C@@H](C)CC)C(=O)N(C)CC(=O)N(C)[C@H]3CCCCCN(C3=O)[C@@H](Cc3ccc(C(F)(F)F)cc3)C(=O)N(C)CC(=O)N[C@@H](CCc3cc(F)c(C(F)(F)F)c(F)c3)C(=O)N2C1 [PP0853] | B (a compound having 3 or more and less than 10 is denoted as B) | B (a compound having 3 or more and less than 10 is denoted as B)
15 | CCO[C@@H]1C[C@H]2C(=O)NC3(CCC3)C(=O)N(C)[C@@H](C3CCCC3)C(=O)N(C)[C@H](C(=O)N3CCOCC3)CC(=O)N(C)[C@@H](CC(F)F)C(=O)N[C@@H]([C@@H](C)CC)C(=O)N(C)CC(=O)N(C)[C@H]3CCCCCN(C3=O)[C@@H](Cc3ccc(C(F)(F)F)cc3)C(=O)N(C)CC(=O)N[C@@H](CCc3cc(F)c(C(F)(F)F)c(F)c3)C(=O)N2C1 [PP0854] | B (a compound having 3 or more and less than 10 is denoted as B) | B (a compound having 3 or more and less than 10 is denoted as B)
16 | CCO[C@@H]1C[C@H]2C(=O)NC3(CCC3)C(=O)N(C)[C@@H](C3CCCC3)C(=O)N(C)[C@H](C(=O)N3CCOCC3)CC(=O)N(C)[C@@H](Cc3cscn3)C(=O)N[C@@H]([C@@H](C)CC)C(=O)N(C)CC(=O)N(C)[C@H]3CCCCCN(C3=O)[C@@H](Cc3ccc(C(F)(F)F)cc3)C(=O)N(C)CC(=O)N[C@@H](CCc3cc(F)c(C(F)(F)F)c(F)c3)C(=O)N2C1 [PP0855] | B (a compound having 3 or more and less than 10 is denoted as B) | B (a compound having 3 or more and less than 10 is denoted as B)
